These results are taken from patent US20190358214A1, “Compositions and Methods for Treating HCV Infection” (AbbVie Inc., priority 2016, published 2019).

The nature of series [1]: 4-day repeat dose dog liver biopsy study. In kind it is in vivo. As to conditions: Compound 1 dosed orally at 1 mg/kg. The protocol: (§1) This was believed to be attributed to the unique prodrug moiety in Compound 1, which is different from that in sofosbuvir. See paragraphs [0017]. [0018] and [0019] of U.S. patent application Ser. No. 15/254,342. In 4-day repeat dose dog liver biopsy study, Compound 1 dosed orally at 1 mg/kg delivered the similar liver triphosphate levels as sofosbuvir dosed orally at 5 mg/kg. Further modeling provided that 75 mg Compound 1 once daily dosing in human patients would match the liver triphosphate Cmax achieved by 400 mg sofosbuvir once daily dosing, that 80 mg Compound 1 once daily dosing in human patients would match the liver triphosphate AUC0-24 achieved by 400 mg sofosbuvir once daily dosing, and that 16 mg Compound 1 once daily dosing in human patients would maintain Cmin above GT1b polymerase EC50. The model that was used to translate dog study results to human liver pharmacokinetics was validated by sofosbuvir data.

Series [2] is described as follows: modeling translating dog study results to human liver pharmacokinetics. The note with it: modeled from dog study, once daily dosing. Here is the method:
as §1

The conditions of series [3]: as described in Example 41 of U.S. patent application Ser. No. 15/254,342; cited from earlier work.

Take `CCOC(=O)C(C)(C)N[P@](=O)(OC[C@H]1O[C@@H](n2ccc(=O)[nH]c2=O)[C@@](F)(Br)[C@@H]1O)Oc1ccccc1` [Compound 1]: the “liver triphosphate levels compared with sofosbuvir dosed orally at 5 mg/kg” value in series [1] was “similar”. In series [2], the “once daily dose in human patients that would maintain Cmin above GT1b polymerase EC50” value stood at 16 mg, the “once daily dose in human patients that would match the liver triphosphate AUC0-24 achieved by 400 mg sofosbuvir once daily” value is 80 mg and the “once daily dose in human patients that would match the liver triphosphate Cmax achieved by 400 mg sofosbuvir once daily” value came out at 75 mg. In addition, in series [3], the “active triphosphate profiles as compared to sofosbuvir” value was “significantly improved”.
